Consider four molecules from patent US20100041760A1, “MONOARYL AMINOTETRALINES” (priority 2008, published 2010).

SMILES strings stand for the structures.

For this test, the system named is DK-PGD2-induced IL-13 production in T helper type 2 (Th2) cells. Description: DK-PGD2-Induced IL-13 Production Assay in Th2 Cells. Conditions: human Th2 cells; 500 nM DK-PGD2; 4 hrs at 37° C.; 10% human AB serum; ELISA; read-out: IC50 value, inhibition of IL-13 production. The test is classed as cell-based. The method, then:
Cultures of Th2 cells were established from blood of healthy human volunteers according to the following procedure. Peripheral blood mononuclear cells (PBMC) were first isolated from 50 mL of fresh blood by Ficoll-Hypaque density gradient centrifugation, followed by CD4^+ cell purification using a CD4^+ T Cell Isolation Kit II (from Miltenyi Biotec Inc.). The CD4^+ T cells were then differentiated to Th2 cells by culturing the cells in X-VIVO 15® medium (from Cambrex BioScience Walkersville Inc.) containing 10% human AB serum (serum of blood type AB from Invitrogen Corporation), 50 U/mL of recombinant human interleukin-2 (rhIL-2) (from PeproTech Inc.) and 100 ng/mL of recombinant human interleukin-4 (rhIL-4) (from PeproTech Inc.) for 7 days. The Th2 cells were isolated using a CD294 (CRTH2) MicroBead Kit (from Miltenyi Biotec Inc.) and amplified in X-VIVO 15® medium containing 10% human AB serum and 50 U/mL of rhIL-2 for 2 to 5 weeks. In general, 70% to 80% of the Th2 cells used in the assay are CRTH2-positive when analyzed by fluorescence-activated cell sorting using the BM16 antibody (as previously described) conjugated to phycoerythrin (PE).
To determine cellular inhibitory potency, compounds at various concentrations were incubated with 2.5×10^4 Th2 cells and 500 nM DK-PGD2 for 4 hrs at 37° C. in 200 μL of X-VIVO 15® medium containing 10% human AB serum. […] The spontaneous production of IL-13 by Th2 cells was determined in the absence of DK-PGD2 stimulation and the value was subtracted from that in the presence of each compound for percent inhibition and IC50 calculations.
The percent inhibition of interleukin 13 (IL-13) production for a compound at various concentrations was calculated according to the following formula, [1-(IL-13 production in the presence of compound)/(IL-13 production in the presence of 0.15% DMSO)]×100. The IC50 value, defined as the concentration of a compound that is required for 50% inhibition of IL-13 production, was calculated by fitting the percent inhibition data for 7 concentrations to a sigmoidal dose-response (4 parameter logistic) model in the XLfit® software Excel add-in program [ID Business Solutions Ltd., model 205, where F(x)=(A+(B−A)/(1+((C/x)̂D)))].
Take `CN([C@@H]1CCCc2c(OCC(=O)O)cccc21)S(=O)(=O)c1cc(F)cc(C(F)(F)F)c1` [Example 1-1, {(R)-5-[(3-fluoro-5-trifluoromethyl-benzenesulfonyl)-methyl-amino]-5,6,7,8-tetrahydro-naphthalen-1-yloxy}-acetic acid]: the 50% inhibitory concentration (IC50) turned out to be 4.65 µM.

As to `CCN(CC)c1cc(C(F)(F)F)cc(S(=O)(=O)N(C)[C@@H]2CCCc3c(OCC(=O)O)cccc32)c1` [Example 4-2, {(R)-5-[(3-diethylamino-5-trifluoromethyl-benzenesulfonyl)-methyl-amino]-5,6,7,8-tetrahydro-naphthalen-1-yloxy}-acetic acid], the IC50 worked out at 3.01 µM.

Consider `CCOc1cc(C(F)(F)F)cc(S(=O)(=O)N(C)[C@@H]2CCCc3c(OCC(=O)O)cccc32)c1` [Example 9-2, {(R)-5-[(3-ethoxy-5-trifluoromethyl-benzenesulfonyl)-methyl-amino]-5,6,7,8-tetrahydro-naphthalen-1-yloxy}-acetic acid], for which the IC50 worked out at 4.84 µM.

Consider `CN([C@@H]1CCCc2c(OCC(=O)O)cccc21)S(=O)(=O)c1cc(OC2CCCC2)cc(C(F)(F)F)c1` [Example 9-3, {(R)-5-[(3-cyclopentyloxy-5-trifluoromethyl-benzenesulfonyl)-methyl-amino]-5,6,7,8-tetrahydro-naphthalen-1-yloxy}-acetic acid], for which the half-maximal inhibitory concentration (IC50) came to 5.09 µM.

As a reminder, the IC50 is the concentration that inhibits the measured activity by half.
